For orientation: CC50 means the concentration at which the toxic effect on the cells reaches its halfway point.

Consider eleven molecules from article PMC10895676, “Antiviral Activity of Lipophilic Nucleoside Tetraphosphate Compounds” (Journal of Medicinal Chemistry, 2024).

Where “and” joins values, the source holds several entries; their conditions need not be identical. Equal entries are not always repeated. Where two headings read alike, the source gives them in different places.

Data set [1] in a line: Chemical hydrolysis in aqueous buffers (PBS pH 7.3 / 8.0, citrate buffer pH 2.0), RP18-HPLC. Type of data set: physicochemical. Conditions: phosphate buffered saline; 25 mM PBS, pH 7.3, 37 °C; read-out: PBS pH 7.3 t1/2 (converted). Here is the method: All metabolite mixtures were analyzed and quantified by means of analytical RP18-HPLC (UV detection).
The solution was incubated at 37 °C in a thermomixer. […] for each extraction and stored at −30 °C. When testing, samples were warmed up to room temperature, and 25 or 20 μL of the liquid was taken and injected into the analytical RP-18-HPLC instrument. Further aliquots were taken for monitoring the kinetic hydrolysis.
5.88 g of citric acid and 3.58 g of NaCl were dissolved in 82 mL of hydrochloric acid (0.1 mol/L). Then, sodium hydroxide was added to adjust the pH to 2.0.

A further data set concerns HIV-1 (HE). Kind of data set: Anti-HIV replication assay, HIV-1 (HE) in wild-type CEM/0 cells. It is filed as cell-based. Conditions: for EC50: Human immunodeficiency virus 1, CCRF-CEM, wild-type CEM/0 cells, mean ± SD, n = 2–3, read-out: HIV-1 (HE) EC50. Here is the method:
Inhibition of HIV-1(HE)- and HIV-2(ROD)-induced cytopathogenicity in wild-type CEM/0 CEM CD4^+ T-cells and thymidine kinase-deficient CEM/TK^– cell cultures was measured in microtiter 96-well plates containing ∼3 × 10^5 CEM cells/mL infected with 100 CCID50 of HIV per milliliter and containing appropriate dilutions of the test compounds. After 4–5 days of incubation at 37 °C in a CO2-controlled humidified atmosphere, virus-induced cellular effects and syncytia cell formation were examined microscopically. The EC50 (50% effective concentration) was defined as the compound concentration required to inhibit HIV-induced giant cell formation by 50%.

The test system of data set [2] is HIV-2 (ROD). In words: Anti-HIV replication assay, HIV-2 (ROD) in wild-type CEM/0 cells. It is filed as cell-based. Conditions: for selectivity index (SI): CC50/EC50, HIV-2 (ROD) in CEM cells; for EC50: Human immunodeficiency virus 2, CCRF-CEM, read-out: HIV-2 (ROD) EC50. Here is the method:
(§1) Inhibition of HIV-1(HE)- and HIV-2(ROD)-induced cytopathogenicity in wild-type CEM/0 CEM CD4^+ T-cells and thymidine kinase-deficient CEM/TK^– cell cultures was measured in microtiter 96-well plates containing ∼3 × 10^5 CEM cells/mL infected with 100 CCID50 of HIV per milliliter and containing appropriate dilutions of the test compounds. After 4–5 days of incubation at 37 °C in a CO2-controlled humidified atmosphere, virus-induced cellular effects and syncytia cell formation were examined microscopically.

In data set [3] the test system is HIV-2 (ROD). In words: Anti-HIV replication assay, HIV-2 (ROD) in thymidine kinase-deficient CEM/TK– cells. Conditions: for selectivity index (SI): CC50/EC50, HIV-2 (ROD) in CEM/TK– cells; for EC50: Human immunodeficiency virus 2, CEM/TK– cells, mean ± SD, n = 2–3, read-out: CEM/TK– HIV-2 (ROD) EC50. It is filed as cell-based. On the procedure: as §1
Data set [4] in a line: Cytotoxicity, inhibition of CEM cell proliferation. Type of data set: cell-based. Conditions: human, CEM cells (CD4+ T-cells), read-out: toxicity CC50.
Data set [5] can be described thus: Cytotoxicity, inhibition of CEM/TK– cell proliferation. It is filed as cell-based. The following applies: human, CEM/TK– cells (CD4+ T-cells), read-out: toxicity CC50.
For data set [6] the following is noted: cited from earlier work.
Data set [7] can be described thus: Hydrolysis in CEM/0 cell extracts. It is filed as in vitro ADME. The following applies: human, 37 °C, read-out: CEM/0 cell extracts t1/2 (converted). On the procedure:
Next, TetraPPPPro-nucleotides 4–9 were incubated in human CD4^+ T-lymphocyte CEM/0 cell extracts to study their stability and identify the hydrolysis products.
CEM cells were grown in RPMI-1640-based cell culture medium to a final density of ∼3 × 10^6 cells/mL. Cells were centrifuged for 10 min at 1250 rpm at 4 °C and washed twice with cold PBS, and the pellet was resuspended at 10^8 cells/mL and sonicated (Hielscher Ultrasound Techn., 100% amplitude, 3·times for 10 s) to destroy cell integrity. Next, the resulting cell suspension was centrifuged at 10,000 rpm to remove cell debris. Finally, the supernatant was divided into aliquots and frozen at −80 °C.
6.0 mM hydrolysis solutions of compounds 4–9 were prepared from 21 μL of 50 mM DMSO stock solutions and 154 μL of DMSO. Two different samples, including 10 μL of water and 10 μL of 6.0 mM hydrolysis solution, were prepared in 2 mL Eppendorf vials. Next, 50 μL of human CEM cell extracts or 50 μL of human citrate plasma were added to the mixture, the reaction was started, and the mixture was incubated at 37 °C for different time periods. The reactions were stopped by the addition of 150 μL of MeOH. The resulting suspension was kept on ice for 5 min, followed by defrosting and centrifugation at 14,000 rpm (Heraeus, Biofuge Pico) for 22 min. The supernatants (80 or 60 μL) were directly injected into HPLC. The calculation of t1/2 was performed analogously to that for the chemical hydrolysis studies.

For the next data set, the system named is pig liver esterase (PLE). In words: Enzymatic hydrolysis with pig liver esterase (PLE). Type of data set: in vitro ADME. The following applies: pig liver esterase in phosphate buffer, PLE in phosphate buffer pH 7.3, 37 °C, read-out: PLE t1/2 (converted). Here is the method: To confirm the enzymatic hydrolysis process, TetraPPPPro-nucleotides 4–9 bearing different kinds of lipophilic groups attached to the δ-phosph(on)ate group were incubated with PLE in phosphate buffer.
Then, 833 μL of 50 mM phosphate buffer (pH 7.3) and 125 μL of DMSO were added to the 6.0 mM hydrolysis solutions. The reaction was started by addition of 62.5 μL of PLE in phosphate buffer (100 units/mL), and the mixture was incubated at 800 rpm at 37 °C in a thermomixer. (1). At different times, aliquots (75 μL) were taken and stopped by the addition of […] of MeOH. The mixture was stored in liquid nitrogen. When testing, samples were warmed up to room temperature, and 60 μL of the liquid was directly injected into HPLC analysis. (2). 40 μL for each extraction was stored in liquid nitrogen. When testing, samples were warmed up to room temperature, and 30 μL of the liquid was taken and injected into the analytical RP-18-HPLC instrument. The calculation of t1/2 was performed analogously to that for the chemical hydrolysis studies.

[8] abbreviates: wild-type CEM/0 cells, mean ± SD, n = 2–3.

Regarding `CCCCCCCCCCCCCCCCCCOP(=O)(OCC(CC)CCCC)OP(=O)(O)OP(=O)(O)OP(=O)(O)OC[C@@H]1C=C[C@H](n2cc(C)c(=O)[nH]c2=O)O1` (stereo partly drawn) [4e, δ-(Alkyl-C8; alkyl-C18)-d4T4P], the half-life at 1.9 mM in data set [1] was 325 h. Also, the EC50 was 0.44 ± 0.17 µM with HIV-1 (HE), 0.32 ± 0.09 µM in the data set with HIV-2 (ROD) [2] (setting [8]) and 0.43 ± 0.21 µM in the data set on HIV-2 (ROD) [3]. Further, the “selectivity index (SI)” value in the data set with HIV-2 (ROD) [2] was determined as 139; in the data set on HIV-2 (ROD) [3], 114. Besides, the figures for the CC50 in data set [4] and in data set [5] were 44.7 µM and 48.9 µM, respectively.

Take β-(AB-C4)-β-C-(C18)-d4TDP [33b]: in [6] (buffer), the “PBS pH 7.3 t1/2” value was above 1000 h.

`CCCCCCCCCCCCCCCCCCOP(=O)(OCc1ccc(OC(=O)CCCC)cc1)OP(=O)(O)OP(=O)(O)OC[C@@H]1C=C[C@H](n2cc(C)c(=O)[nH]c2=O)O1` (stereo partly drawn) [2a, γ-(AB-C4; C18)-d4TTP]: the “PBS pH 7.3 t1/2” value in data set [6] (PBS) was 237 h.

For β-(alkyl-C4)-β-C-(alkyl-C18)-d4TDP, the “PBS pH 7.3 t1/2” value in data set [6] (buffer) is above 3000 h.

In the case of `CCCCCCCCCCCCCCCCCCP(=O)(OCc1ccc(OC(=O)CCCC)cc1)OP(=O)(O)OP(=O)(O)OP(=O)(O)OC[C@@H]1C=C[C@H](n2cc(C)c(=O)[nH]c2=O)O1` (stereo partly drawn) [compound 7, δ-(AB-C4)-δ-C-(alkyl-C18)-d4T4P], the half-life at 1.9 mM in [1] was above 600 h. Also, the half-life at 0.86 mM in [7] is above 8 h. Also, the half-life at 0.45 mM in the data set with pig liver esterase (PLE) is 0.5 h. Besides, the “increase in antiviral potency as compared to d4T” value in the data set with HIV-1 (HE) (HIV-1, CEM/0 cells) worked out at 36 fold; in the data set on HIV-2 (ROD) [2] (HIV-2, CEM/0 cells), 107 fold. Further, the EC50 in the data set on HIV-1 (HE) came to 0.0092 ± 0.0082 µM; in the data set on HIV-2 (ROD) [2] (setting [8]) it was 0.0091 ± 0.0077 µM; in the data set with HIV-2 (ROD) [3], 0.0065 ± 0.0057 µM. The “selectivity index (SI)” value is 4330 with HIV-2 (ROD) [2]; 5700 and 5677 in the data set with HIV-2 (ROD) [3]. Further, the CC50 worked out at 39.4 µM in data set [4] and 36.9 µM in [5].

In the case of `Cc1cn([C@H]2C=C[C@@H](CO)O2)c(=O)[nH]c1=O` [d4T, 3′-deoxy-2′,3′-didehydrothymidine, reference compound], the EC50 is 0.33 ± 0.13 µM in the data set on HIV-1 (HE), 0.97 ± 0.5 µM with HIV-2 (ROD) [2] and above 50 µM with HIV-2 (ROD) [3]. Also, the half-maximal cytotoxic concentration (CC50) in data set [4] and in data set [5] was above 50 µM each time.

In the case of β-(AB-C4; C18)-d4TDP [33a], the “PBS pH 7.3 t1/2” value in data set [6] (buffer) was 406 h.

For the molecule `CCCCCCCCCCCCCCCCCCP(=O)(OCC(CC)CCCC)OP(=O)(O)OP(=O)(O)OP(=O)(O)OC[C@@H]1C=C[C@H](n2cc(C)c(=O)[nH]c2=O)O1` (stereo partly drawn) [5b, δ-(Alkyl-C8)-δ-C-(alkyl-C18)-d4T4P], in [1], the half-life at 1.9 mM was above 1000 h. Also, the figures for the EC50 in the data set with HIV-1 (HE), in the data set on HIV-2 (ROD) [2] (setting [8]) and in the data set with HIV-2 (ROD) [3] were 1.44 ± 0.7 µM, 1.3 ± 0.64 µM and 0.16 ± 0.13 µM, respectively. Moreover, the “selectivity index (SI)” value in the data set on HIV-2 (ROD) [2] is given as above 77; in the data set with HIV-2 (ROD) [3], 312. In addition, the CC50 was above 100 µM in [4] and 50 µM in data set [5].

With `CCCCCCCCCCCCCCCCOC(=O)Oc1ccc(COP(=O)(OCc2ccc(OC(=O)CCCC)cc2)OP(=O)(O)OP(=O)(O)OP(=O)(O)OC[C@@H]2C=C[C@H](n3cc(C)c(=O)[nH]c3=O)O2)cc1` (stereo partly drawn) [compound 9, δ-(AB-C4; ACB-C16)-d4T4P], the half-life at 1.9 mM in [1] was 25 h. The half-life at 0.86 mM in data set [7] was 2.58 h. The half-life at 0.45 mM in the data set on pig liver esterase (PLE) is 1.03 h. Besides, the figures for the EC50 with HIV-1 (HE), with HIV-2 (ROD) [2] (setting [8]) and with HIV-2 (ROD) [3] were 0.17 ± 0.05 µM, 0.21 ± 0.11 µM and 9.71 ± 4.78 µM, respectively. Further, the entries for the “selectivity index (SI)” value with HIV-2 (ROD) [2] and in the data set with HIV-2 (ROD) [3] were 365 and 5, respectively. Further, the values for the CC50 in data set [4] and in [5] were 76.8 µM and 50 µM, respectively.

In the case of `CCCCCCCCCCCCCCCCCCOP(=O)(OCCCCCCCCCCCCCCCCCC)OP(=O)(O)OP(=O)(O)OP(=O)(O)OC[C@@H]1C=C[C@H](n2cc(C)c(=O)[nH]c2=O)O1` [4c, δ-(Alkyl-C18; alkyl-C18)-d4T4P], the values for the EC50 in the data set on HIV-1 (HE), in the data set with HIV-2 (ROD) [2] (setting [8]) and in the data set with HIV-2 (ROD) [3] were 1.99 ± 0.9 µM, 2.09 ± 0.58 µM and 6.18 ± 1 µM, respectively. In addition, the “selectivity index (SI)” value with HIV-2 (ROD) [2] came out at 24; in the data set with HIV-2 (ROD) [3], 13. The CC50 worked out at 50 µM in data set [4] and 84.1 µM in [5].

Take `CCCCCCCCCCCCOP(=O)(OCCCCCCCCCCCC)OP(=O)(O)OP(=O)(O)OP(=O)(O)OC[C@@H]1C=C[C@H](n2cc(C)c(=O)[nH]c2=O)O1` [4b, δ-(Alkyl-C12; alkyl-C12)-d4T4P]: the half-life at 1.9 mM in [1] was 215 h. Further, the figures for the EC50 in the data set with HIV-1 (HE), in the data set with HIV-2 (ROD) [2] (setting [8]) and in the data set with HIV-2 (ROD) [3] were 0.17 ± 0.1 µM, 0.11 ± 0.05 µM and 0.029 ± 0.037 µM, respectively. In addition, the “selectivity index (SI)” value in the data set with HIV-2 (ROD) [2] was found to be 405; with HIV-2 (ROD) [3], 2927. Further, in the data set on HIV-2 (ROD) [3] (HIV-2, CEM/TK– cells), the “improvement of antiviral activity as compared to the parent d4T” value is above 1700 fold. For the same molecule, the figures for the 50% cytotoxic concentration (CC50) in data set [4] and in data set [5] were 44.6 µM and 84.9 µM, respectively.
